The source of these data is US20070232556A1, “Methods and compositions for the treatment of neurological diseases and disorders” (priority 2006, published 2007).

The subject of one assay is wt microglia. Description: Microglial phagocytosis of aggregated fluorescein-labeled Aβ1-42 (flow cytometry), wt microglia. Format: cell-based, mouse. Particulars: for Aβ1-42 uptake (percent of wt controls): n=6. How it is done: (§1) Microglial Aβ phagocytosis. At DIV 14, microglia were seeded in 6-well plates at 1.5×10^5 cells per well in microglial culture medium. After 2hr seeding, medium was changed with 1.5 ml of serum-free DMEM medium containing penicillin and streptomycin. To make aggregated Aβ for phagocytosis, Aβ was dissolved in 2 mM NaOH and was diluted into 10 μM of stock solution (100×) in PBS followed by incubation at 37° C. for 2 hr and monitored by turbidity. For studying signaling pathways involved in Aβ phagocytosis, some microglia were pre-treated for 1 hr with AH6809 (20 μM), butaprost ([…]), SC51089 (10 μM), PTPE2 (20 μM), forskolin (50 μM), or BIM (10 μM) prior to treatment with aggregated fluorescein labeled AP1-42 (100 nM). After 24hr incubation of Aβ, cells were washed with PBS followed by trypsinization (0.05%) and centrifugation. Cells were then re-suspended in PBS and subjected to flow cytometry. Flow cytometer (FACScan, BD Biosciences, San Jose, Calif.) set at un-gated 10,000 cells per measure was used to analyze Aβ uptake as an indication of Aβ phagocytosis. Data were analyzed using Summit Mo-Flo software (Cytomation, Fort Collins, Colo.). Phagocytosis was presented as percent of mean FITC intensity in wt controls treated with Aβ. Some cells were plated onto chambered slides at 1×10^4 for assessing cellular uptake of Aβ using fluorescent microscope (Nikon TE200).
(In general: Flow cytometry measures light scatter and fluorescence of single cells or particles in a stream.)

A further assay deals with EP2^−/− microglia. Description: Microglial phagocytosis of aggregated fluorescein-labeled Aβ1-42 (flow cytometry), EP2−/− microglia. Format: cell-based, mouse. How it is done:
as §1

Setting [1] is: BIM at 10 μM, 1 hr pre-treatment, 100 nM fluorescein-Aβ1-42, 24 hr.

For SC51089, the “Effect on Aβ1-42 phagocytosis” value in the assay on wt microglia (SC51089 at 10 μM) and in the assay on EP2^−/− microglia (SC51089 at 10 μM) was “without effect” in each case.
As to bisindolylmaleimide [BIM], the “Aβ1-42 uptake, % of wt basal Aβ1-42 uptake” value came to 36±4% with wt microglia (setting [1]) and 35±4% with EP2^−/− microglia (setting [1]).
For `O=C(O)CCC/C=C\C[C@H]1C(=O)C[C@@H](O)[C@@H]1/C=C/[C@@H](O)CCc1ccccc1` [PTPE2, 17-phenyl trinor prostaglandin E2], the “Effect on Aβ1-42 phagocytosis” value in the assay on wt microglia (PTPE2 at 20 μM) and with EP2^−/− microglia (PTPE2 at 20 μM) was “without effect” throughout.
`O=S(=O)(NCCNC/C=C/c1ccc(Br)cc1)c1cccc2cnccc12` [H89]: the “Effect on Aβ1-42 uptake” value with wt microglia (PKA inhibitor) is “did not enhanced Aβ1-42 uptake”.
On to `CCCC1([C@H](O)C/C=C/[C@H]2[C@H](O)CC(=O)[C@@H]2CCCCCCC(=O)OC)CCC1` [butaprost], for which the “Aβ1-42 uptake (percent of wt controls)” value in the assay on wt microglia (1 μM) turned out to be 98±3%; in the assay with wt microglia (10 μM), 104±2%; in the assay with wt microglia (50 μM), 92±2%.
